The target in this assay is T1, hNET (Homo sapiens, UniProt P23975).
T1 construct: expressed in transfected cells
The experiment in a line: Norepinephrine (NE) uptake assay in MDCK-Net6 cells stably transfected with human hNET. The settings on record: [3H]NE uptake; for inhibition at 1 µM: MDCK-Net6, 1 μM test compound; for EC50: test range 1 to 10,000 nM. The format is cell-based. The method, then: MDCK-Net6 cells, stably transfected with human hNET (Pacholczyk, T., R. D. Blakely, and S. G. Amara, Nature, 1991, 350(6316): p. 350-4) were cultured in growth medium containing high glucose DMEM (Gibco, Cat. No. 11995), 10% FBS (dialyzed, heat-inactivated, US Bio-Technologies, Lot FBD1129HI) and 500 μg/ml G418 (Gibco, Cat. No. 10131). Cells were plated at 300,000/T75 flask and cells were split twice weekly. The JAR cell line (human placental choriocarcinoma) was purchased from ATCC (Cat. No. HTB-144). The cells were cultured in growth medium containing RPMI 1640 (Gibco, Cat. No. 72400), 10% FBS (Irvine, Cat. No. 3000), 1% sodium pyruvate (Gibco, Cat. No. 1136) and 0.25% glucose. Cells were plated at 250,000 cells/T75 flask and split twice weekly. For all assays, cells were plated in Wallac 96-well sterile plates (PerkinElmer, Cat. No. 3983498).
Norepinephrine (NE) Uptake Assay
On day 1, cells were plated at 3,000 cells/well in growth medium and maintained in a cell incubator (37° C., 5% CO2). On day 2, growth medium was replaced with 200 μl of assay buffer (25 mM HEPES; 120 mM NaCl; 5 mM KCl; 2.5 mM CaCl2; 1.2 mM MgSO4; 2 mg/ml glucose (pH 7.4, 37° C.)) containing 0.2 mg/ml ascorbic acid and 10 μM pargyline. Plates containing cells with […] of assay buffer were equilibrated for 10 minutes at 37° C. prior to addition of compounds. A stock solution of desipramine was prepared in DMSO (10 mM) and delivered to triplicate wells containing cells for a final test concentration of 1 μM. Data from these wells were used to define non-specific NE uptake (minimum NE uptake). Test compounds were prepared in DMSO (10 mM) and diluted in assay buffer according to test range (1 to 10,000 nM). Twenty-five microliters of assay buffer (maximum NE uptake) or test compound were added directly to triplicate wells containing cells in 200 μl of assay buffer. The cells in assay buffer with test compounds were incubated for 20 minutes at 37° C. To initiate the NE uptake, [^3H]NE diluted in assay buffer (120 nM final assay concentration) was delivered in 25 μl aliquots to each well and the plates were incubated for 5 minutes (37° C.). The reaction was terminated by decanting the supernatant from the plate. The plates containing cells were washed twice with 200 μl assay buffer (37° C.) to remove free radioligand. The plates were then inverted, left to dry for 2 minutes, then reinverted and air-dried for an additional 10 minutes. The cells were lysed in 25 μl of 0.25 N NaOH solution (4° C.), placed on a shake table and vigorously shaken for 5 minutes. After cell lysis, 75 μl of scintillation cocktail was added to each well and the plates were sealed with film tape. The plates were returned to the shake table and vigorously shaken for a minimum of 10 minutes to ensure adequate partitioning of organic and aqueous solutions. The plates were counted in a Wallac Microbeta counter (PerkinElmer) to collect the raw cpm data.
For each experiment, a data stream of cpm values collected from the Wallac Microbeta counter was downloaded to a Microsoft Excel statistical application program. Calculations of EC50 values were made using the transformed-both-sides logistic dose response program written by Wyeth Biometrics Department. The statistical program uses mean cpm values from wells representing maximum binding or uptake (assay buffer) and mean cpm values from wells representing minimum binding or uptake ((1 μM desipramine (hNET) or 1 μM paroxetine (hSERT)). Estimation of the EC50 value was completed on a log scale and the line was fit between the maximum and minimum binding or uptake values. All graphic data representation was generated by normalizing each data point to a mean percent based on the maximum and minimum binding or uptake values. The EC50 values reported from multiple experiments were calculated by pooling the raw data from each experiment and analyzing the pooled data as one experiment.

Counter-ions that a name gives are not always drawn.

T1 sequence (P23975 whole entry): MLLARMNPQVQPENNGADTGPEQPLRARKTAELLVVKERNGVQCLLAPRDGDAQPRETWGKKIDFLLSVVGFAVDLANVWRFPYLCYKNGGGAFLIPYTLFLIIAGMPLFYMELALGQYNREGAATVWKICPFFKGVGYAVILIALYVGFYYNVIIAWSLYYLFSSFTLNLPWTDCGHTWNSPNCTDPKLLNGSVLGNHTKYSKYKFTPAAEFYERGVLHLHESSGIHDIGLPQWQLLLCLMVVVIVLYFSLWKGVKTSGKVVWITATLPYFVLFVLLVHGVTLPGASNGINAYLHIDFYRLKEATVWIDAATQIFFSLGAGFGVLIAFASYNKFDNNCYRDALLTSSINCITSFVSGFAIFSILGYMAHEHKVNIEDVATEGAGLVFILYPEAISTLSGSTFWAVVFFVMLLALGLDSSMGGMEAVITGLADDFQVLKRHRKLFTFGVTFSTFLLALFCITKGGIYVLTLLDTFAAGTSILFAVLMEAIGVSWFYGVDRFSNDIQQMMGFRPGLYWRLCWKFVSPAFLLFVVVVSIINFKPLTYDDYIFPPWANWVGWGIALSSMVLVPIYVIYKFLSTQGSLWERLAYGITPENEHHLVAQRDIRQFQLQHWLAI

With `COc1ccc2cc(C(CN3CCC(N(C)C)CC3)C3(O)CCCCC3)ccc2c1` (stereo not shown) [Example 343, 1-[2-[4-(dimethylamino)piperidin-1-yl]-1-(6-methoxy-2-naphthyl)ethyl]cyclohexanol dihydrochloride], the inhibition at 1 µM is 48%.
Same read-out and setting: then `NC1CCN(CC(c2cccc(Cl)c2)C2(O)CCC3CCCCC3C2)CC1` (stereo not shown) [Example 327, 2-[2-(4-aminopiperidin-1-yl-1-(3-chlorophenyl)ethyl]decahydronaphthalen-2-oldihydrochloride], with 3%.
As to `CNC1CCN(CC(c2ccc(Cl)c(Cl)c2)C2(O)CCCCC2)CC1` (stereo not shown) [Example 13, 1-{1-(3,4-dichlorophenyl)-2-[4-(methylamino)piperidin-1-yl]ethyl}cyclohexanol dihydrochloride], 1 µM produced 89% inhibition and the EC50 came out at 210 nM.
Take `CNC1CCN(CC(c2cccc(Cl)c2)C2CCCCCC2)CC1` (stereo not shown) [Example 236, 1-[2-(3-chlorophenyl)-2-cycloheptylethyl]-N-methylpiperidin-4-amine dihydrochloride]: the inhibition at 1 µM worked out at 49.7%.
`COc1ccc2cc([C@H](CN3CCC(N4CCCCC4)CC3)C3(O)CCCCC3)ccc2c1` (single isomer, unassigned) [Example 354, dihydrochloride] registered an inhibition at 1 µM of 82% and an EC50 of 400 nM.
As to `NC1CCN(CC(c2ccc(OCc3ccc4ccccc4c3)c(Cl)c2)C2(O)CCCCC2)CC1` (stereo not shown) [Example 430, 1-{2-(4-aminopiperidin-1-yl)-1-[3-chloro-4-(2-naphthylmethoxy)phenyl]ethyl}cyclohexanol dihydrochloride], the inhibition at 1 µM came to 42%.
On the same count and under the same terms, then `C[C@@H]1CCC(O)([C@H](CN2CCC(N3CCCCC3)CC2)c2cccc(OC(F)(F)F)c2)C1` (stereo partly drawn) [Example 398, (3R)-1-{2-(1.4′-bipiperidin-1′-yl)-1-[3-(trifluoromethoxy)phenyl]ethyl}-3-methylcyclopentanol dihydrochloride], with 0%; and `CN[C@H]1CCCN(CC(c2ccc(OCc3ccccc3)c(Cl)c2)C2(O)CCCCC2)C1` (stereo partly drawn) [Example 195, 1-{1-[4-(benzyloxy)-3-chlorophenyl]-2-[(3S)-3-(methylamino)piperidin-1-yl]ethyl}cyclohexanol dihydrochloride], with 92%.
Take `N[C@H]1CCN(C[C@H](c2cccc(Cl)c2)C2(O)CCCCC2)C1` [Example 387, 1-[(1S)-2-[(3S)-3-aminopyrrolidin-1-yl]-1-(3-chlorophenyl)ethyl]cyclohexanol dihydrochloride]: a half-maximal effect (EC50) was put at 410 nM. In other words, the sub-micromolar range.
Turning to `COc1ccc2cc(C(CN3CCC(N4CCCCC4)CC3)C3(O)CCCCC3)ccc2c1` (stereo not shown) [Example 346, 1-[2-(1,4′-bipiperidin-1′-yl)-1-(6-methoxy-2-naphthyl)ethyl]cyclohexanol dihydrochloride], the inhibition at 1 µM is 81% and a half-maximal effect (EC50) was put at 190 nM.
The corresponding values for `NC1CCN(CC(c2cccc(Cl)c2)C2(O)CCCCC2)CC1` (stereo not shown) [Example 35, 1-[2-(4-aminopiperidin-1-yl)-1-(3-chlorophenyl)ethyl]cyclohexanol dihydrochloride] are 59% and 52 nM.
Molecule `OC1CCN(CC(c2cccc(OC(F)(F)F)c2)C2(O)CCCCC2)CC1` (stereo not shown) [Example 240, 1-{2-(1-hydroxycyclohexyl)-2-[3-(trifluoromethoxy)phenyl]ethyl}piperidin-4-ol hydrochloride] had an inhibition at 1 µM of 4.4%.
`CN(C)C1CCN(CC(c2cccc(Cl)c2)C2(O)CCCCC2)CC1` (stereo not shown) [Example 36, 1-{1-(3-chlorophenyl)-2-[4-(dimethylamino)piperidin-1-yl]ethyl}cyclohexanol dihydrochloride] returned an inhibition at 1 µM of 57% and an EC50 of 130 nM.
`N[C@H]1CCN(CC(c2cccc(OC(F)(F)F)c2)C2(O)CCCCC2)C1` (stereo partly drawn) [Example 216, 1-{2-[(3S)-3-aminopyrrolidin-1-yl]-1-[3-(trifluoromethoxy)phenyl]ethyl}cyclohexanol dihydrochloride] registered an inhibition at 1 µM of 38.9%.
Still for that read-out and setting: then `CN[C@@H]1CCN(CC(c2ccc3ccccc3c2)C2(O)CCCCC2)C1` (stereo partly drawn) [Example 376, 1-[2-[(3R)-3-(methylamino)pyrrolidin-1-yl]-1-(2-naphthyl)ethyl]cyclohexanol dihydrochloride], with 30%; and `CN(C)C1CCN(CC(c2cccc(Br)c2)C2(O)CCCCC2)CC1` (stereo not shown) [Example 319, 1-{1-(3-bromophenyl)-2-[4-(dimethylamino)piperidin-1-yl]ethyl}cyclohexanol dihydrochloride], with 95.4%; and `CNC1CCN(CC(c2cccc(Cl)c2)C2CCCC2)CC1` (stereo not shown) [Example 228, 1-[2-(3-chlorophenyl)-2-cyclopentylethyl]-N-methylpiperidin-4-amine dihydrochloride], with 84.2%.
For the molecule `NC1CCN(CC(c2ccc(OC(F)(F)F)cc2)C2(O)CCC2)CC1` (stereo not shown) [Example 305, 1-{2-(4-aminopiperidin-1-yl)-1-[4-(trifluoromethoxy)phenyl]ethyl}cyclobutanol dihydrochloride], 1 µM produced 49.9% inhibition.
Take `CN[C@H]1CCN(CC(c2cccc(OC(F)(F)F)c2)C2(O)CCCCC2)C1` (stereo partly drawn) [Example 215, 1-{2-[(3S)-3-(methylamino)pyrrolidin-1-yl]-1-[3-(trifluoromethoxy)phenyl]ethyl}cyclohexanol dihydrochloride]: the inhibition at 1 µM stood at 30.2%.
Same read-out and setting: then `CN[C@@H]1CCN(CC(c2cccc(OC(F)(F)F)c2)C2(O)CCCCC2)C1` (stereo partly drawn) [Example 218, 1-{2-[(3R)-3-(methylamino)pyrrolidin-1-yl]-1-[3-(trifluoromethoxy)phenyl]ethyl}cyclohexanol dihydrochloride], with 42%.
For `COc1ccc(C(CN2CCC(N)CC2)C2(O)CCCCC2)cc1Br` (stereo not shown) [Example 25, 1-[2-(4-aminopiperidin-1-yl)-1-(3-bromo-4-methoxyphenyl)ethyl]cyclohexanol dihydrochloride], the inhibition at 1 µM was found to be 85% and the EC50 is 200 nM.
Turning to `NC1CCN(CC(c2ccc(Oc3ccccc3)cc2)C2(O)CCCCC2)CC1` (stereo not shown) [Example 310, 1-{2-(4-aminopiperidin-1-yl)-1-(4-phenoxyphenyl)ethyl]cyclohexanol dihydrochloride], the inhibition at 1 µM was found to be 44.1%.
The same measure, in the same setting: then `CN(C)C1CCN(CC(c2cccc(Cl)c2)C2CCCC2)CC1` (stereo not shown) [Example 229, 1-[2-(3-chlorophenyl)-2-cyclopentylethyl]-N,N-dimethylpiperidin-4-amine dihydrochloride], with 87.3%.
`OC1(C(CN2CCC(N3CCCCC3)CC2)c2cccc(Br)c2)CCCCC1` (stereo not shown) [Example 4, 1-[2-(1,4′-bipiperidin-1′-yl)-1-(3-bromophenyl)ethyl]cyclohexanol dihydrochloride] registered an inhibition at 1 µM of 97% and an EC50 of 160 nM.
In turn, `CN[C@@H]1CCN(CC(c2cccc(Cl)c2)C2(O)CCCCC2)C1` (stereo partly drawn) [Example 200, 1-{1-(3-chlorophenyl)-2-[(3R)-3-(methylamino)pyrrolidin-1-yl]ethyl}cyclohexanol dihydrochloride] returned an inhibition at 1 µM of 54.1%.
Regarding `COc1ccc2cc(C(CN3CCC(N)CC3)C3(O)CCCCC3)ccc2c1` (stereo not shown) [Example 342, 1-[2-(4-aminopiperidin-1-yl)-1-(6-methoxy-2-naphthyl)ethyl]cyclohexanol dihydrochloride], the inhibition at 1 µM is 59% and the EC50 worked out at 390 nM.

These data come from patent US7550485B2, “Substituted N-heterocycle derivatives and methods of their use” (Wyeth, priority 2003, dated 2009).
